From article PMC7645366 (EMBO Molecular Medicine, 2020)
“And” between values parts separate entries of the source, which are not always exact repeats. Identical values can stand only once. No end group written: not given here.

What was measured:
PLY [1] = molecular target: T1, PLY (Streptococcus pneumoniae serotype 4, UniProt P0C2J9); assay type: binding
LLO [2] = molecular target: T2, LLO (Listeria monocytogenes serovar 1/2a, UniProt P13128); test: ELISA, binding of plate-bound MRC-1 peptides to LLO; details: plate-bound peptide, LLO 0–0.5 μM
T2 sequence (P13128 25-529): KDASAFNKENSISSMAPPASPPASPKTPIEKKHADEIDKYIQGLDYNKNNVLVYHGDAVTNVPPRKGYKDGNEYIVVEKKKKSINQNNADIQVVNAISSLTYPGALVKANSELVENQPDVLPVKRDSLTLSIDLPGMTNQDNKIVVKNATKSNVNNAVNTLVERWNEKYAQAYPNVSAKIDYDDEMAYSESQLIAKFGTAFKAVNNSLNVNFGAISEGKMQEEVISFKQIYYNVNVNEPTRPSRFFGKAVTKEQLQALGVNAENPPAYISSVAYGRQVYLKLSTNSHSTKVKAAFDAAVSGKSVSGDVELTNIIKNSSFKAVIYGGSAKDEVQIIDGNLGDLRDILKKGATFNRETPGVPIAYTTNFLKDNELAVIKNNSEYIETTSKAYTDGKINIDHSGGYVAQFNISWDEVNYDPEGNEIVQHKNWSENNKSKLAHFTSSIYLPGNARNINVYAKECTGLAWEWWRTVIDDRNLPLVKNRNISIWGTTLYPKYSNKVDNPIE
Experimental: (§1) Briefly, 96‐well flat‐bottomed plates (Sigma, UK) were coated overnight with 10 μM of MRC‐1 peptides in coating buffer (15 mM Na2CO3, 35 mM NaHCO3, pH 9.6). Wells were blocked with 200 μl of 10% (v/v) FBS in PBS for 2 h and then washed three times with PBS, 0.05% (v/v) Tween 20 (Sigma). 50 μl of purified PLY, LLO, and SLO (0–1 μM) in PBS was added and incubated at 37°C for 1 h. 1 μM BSA was added to control wells. Wells were washed with PBS and bound proteins were detected by adding 100 μl of mouse α‐PLY (1:1,000), mouse α‐SLO (1:400), and rabbit α‐LLO (1:1,500) (Abcam), respectively, in blocking buffer. Plates were incubated with 100 μl of secondary anti‐rabbit/anti‐mouse IgG HRP (1:2,000) dilution in blocking buffer. Bound antibodies were detected by adding 100 μl of tetramethylbenzidine substrate solution for 30 min. Phosphoric acid (1 M) was used as the stop solution and absorbance was measured at 450 nm.

SLO [3] = molecular target: T3, SLO (Streptococcus pyogenes serotype M1, UniProt P0C0I3); assay type: binding
T3 sequence (P0C0I3 34-571 limits assumed): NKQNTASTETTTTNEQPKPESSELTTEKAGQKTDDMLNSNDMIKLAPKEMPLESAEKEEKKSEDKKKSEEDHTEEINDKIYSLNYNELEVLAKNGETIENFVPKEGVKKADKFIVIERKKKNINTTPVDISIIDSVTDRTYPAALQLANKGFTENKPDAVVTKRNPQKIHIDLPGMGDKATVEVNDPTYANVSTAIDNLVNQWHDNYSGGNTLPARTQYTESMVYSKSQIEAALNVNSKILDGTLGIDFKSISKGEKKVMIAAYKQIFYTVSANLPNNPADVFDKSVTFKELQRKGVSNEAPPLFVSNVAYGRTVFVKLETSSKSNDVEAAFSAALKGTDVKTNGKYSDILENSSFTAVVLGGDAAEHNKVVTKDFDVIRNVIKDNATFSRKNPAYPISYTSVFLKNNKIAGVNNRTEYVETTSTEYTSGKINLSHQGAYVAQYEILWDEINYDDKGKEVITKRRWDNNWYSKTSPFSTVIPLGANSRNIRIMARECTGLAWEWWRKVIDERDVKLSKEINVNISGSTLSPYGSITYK

BSA = test: ELISA, binding of plate-bound MRC-1 peptides to BSA (negative control); details: plate-bound peptide
Experimental: as §1

SLO [4] = molecular target: T3, SLO; assay type: cell-based
S. pyogenes type M1T1 [5] = test: Hemolytic activity of whole bacteria, S. pyogenes; assay type: cell-based, Streptococcus pyogenes; details: 100 μM peptide
Experimental: (§2) All samples were assayed in triplicates.

L. monocytogenes type 1 = test: Hemolytic activity of whole bacteria, L. monocytogenes; assay type: cell-based, Listeria monocytogenes; details: 100 μM peptide
Experimental: as §2

LLO [6] = molecular target: T2, LLO; test: LDH cytotoxicity assay, THP-1 macrophages, LLO; assay type: cell-based; details: 100 μM, 18 h; for % cytotoxicity relative to positive control (lysis buffer), LDH: THP-1, LLO 0.5 μg/ml
Experimental: (§3) Human monocytic leukemia THP‐1 cells (ATCC TIB‐202) were cultivated in R10 medium and maintained at density of 10^6 cells/ml. For differentiation into macrophages, THP‐1 cells were treated for 48 h with 20 ng/ml of phorbol myristate acetate (Sigma).
Cytotoxicity was determined by measuring the activity of lactate dehydrogenase enzyme released into the culture supernatant using the Cytotoxicity Detection kit (Roche) according to the manufacturer's instructions. The percentage cytotoxicity was calculated by ratio to 100% lysis control (0.1% saponin).

PLY [7] = molecular target: T1, PLY; assay type: cell-based
LLO [8] = molecular target: T2, LLO; test: Live imaging of cytolysis of THP-1 macrophages by LLO; assay type: cell-based; details: 0.5 μg/ml LLO, 100 μM, 20 min
SLO [9] = molecular target: T3, SLO; assay type: cell-based; remark: listed apart in the source
[10] = system: PLY‐producing pneumococcal strain T4; test: Binding of FITC-labeled peptides to pneumococci, fluorescence microscopy; parameters: species or system Streptococcus pneumoniae
PLY [11] = molecular target: T1, PLY; assay type: cell-based; remark: listed apart in the source
LLO [12] = molecular target: T2, LLO; test: Cytokine ELISA, THP-1 macrophages stimulated with LLO; assay type: cell-based; details: 18 h; for IL-8 levels in THP-1 macrophages: LLO 0.5 μg/ml, 100uM
Experimental: as §3

SLO [13] = molecular target: T3, SLO; assay type: cell-based; remark: listed apart in the source
PLY [14] = molecular target: T1, PLY; assay type: cell-based; remark: listed apart in the source
PLY [15] = molecular target: T1, PLY; assay type: cell-based; remark: listed apart in the source
S. pneumoniae T4 [16] = test: Bacterial invasion assay, 3D lung epithelial models, CFU after gentamicin; assay type: cell-based, Streptococcus pneumoniae; details: for Mean Colonies at 100X dil, bacterial invasion of lung epithelium models / % entry bacteria= (bacteria uptaken/Input)*100: T4, MOI 10, 2h, 100 μM peptide
S.pneumoniae T4RΔply = test: Co-localization of intracellular T4RΔply with MRC-1 and LC3B in DCs; assay type: cell-based, Streptococcus pneumoniae; details: for % bacteria colocalized with MRC-1 / % bacteria colocalized with LC3B / number of bacteria (of n=50) colocalized with LC3B / number of bacteria (of n=50) colocalized with MRC-1: T4RΔply in DCs
S. pyogenes type M1T1 [17] = test: Co-localization of intracellular S. pyogenes with MRC-1 and LC3B in DCs; assay type: cell-based, Streptococcus pyogenes; details: 100 μM peptide
S. pneumoniae T4 [18] = test: Zebrafish embryo infection model, survival; assay type: in vivo, zebrafish (Danio renio); details: 500 CFU T4 microinjected into yolk sac, co-administration 1 nM
Experimental: The AB strain of zebrafish embryos (Danio renio) was collected within first hours post‐fertilization (hpf) from the zebrafish core facility at Karolinska Institutet, Stockholm, and maintained at 28.5°C in E3 medium (5.0 mM NaCl, 0.17 mM KCl, 0.33 mM CaCl2, 0.33 mM MgSO4). […] Microinjection was done using a glass needle (Harvard apparatus, Quebec, Canada) controlled with a micromanipulator Narishige MN‐153 (Narishige International Limited, London, UK) connected to an Eppendorf FemtoJet express (Eppendorf AG, Hamburg, Germany). The injected volume was previously optimized by injecting of a droplet into mineral oil over a scale bar. The embryos were randomly assigned to the treatment groups and a minimum of 156 embryos/group was used. To determine the actual number of bacteria in the injected volume, one drop was collected into the agar plates, and 1–3 embryos were digested and plated just immediately after injection. The infected embryos were incubated at 30°C for 96 h. The infected embryos were monitored for disease symptoms and survival under a stereomicroscope twice a day up to 4 days post‐injection. Absence of heartbeat and movement was interpreted as a sign of death. All experiments were performed thrice.

LC3B = assay type: cell-based, human
SLO [19] = molecular target: T3, SLO
LLO [20] = molecular target: T2, LLO; test: Hemolysis assay with purified LLO; details: 1 μg/ml toxin
Experimental: Human blood from anonymous healthy donors (obtained from Karolinska University Hospital) was diluted 1:100 in PBS with 0.5 mM DTT and mixed 1:1 with twofold serial dilutions of 10^8 CFUs of bacteria or 1 μg/ml purified bacterial toxins in 96‐well plates. The MRC‐1 peptides were serially diluted 10‐fold (1–1,000 μM) in PBS and added to the wells prior to addition of blood. The blood was co‐incubated with whole bacteria or purified toxins at 37°C for 1 h, and after 50 min, 0.1% triton X‐100 was added to the positive control wells. Cells were spun down at 400 g for 15 min and the absorbance of the supernatants was measured at 540 nm in a microplate reader. Percentage of lysis compared to the toxin alone was calculated. All samples were assayed in triplicates.

[21] = Lung histology (H&E) and clinical symptoms after intranasal administration; details: mice
Experimental: (F) Hematoxylin and eosin (H&E) staining of mouse lungs at 24 h post intranasal

T1 sequence (P0C2J9 whole entry, looked up): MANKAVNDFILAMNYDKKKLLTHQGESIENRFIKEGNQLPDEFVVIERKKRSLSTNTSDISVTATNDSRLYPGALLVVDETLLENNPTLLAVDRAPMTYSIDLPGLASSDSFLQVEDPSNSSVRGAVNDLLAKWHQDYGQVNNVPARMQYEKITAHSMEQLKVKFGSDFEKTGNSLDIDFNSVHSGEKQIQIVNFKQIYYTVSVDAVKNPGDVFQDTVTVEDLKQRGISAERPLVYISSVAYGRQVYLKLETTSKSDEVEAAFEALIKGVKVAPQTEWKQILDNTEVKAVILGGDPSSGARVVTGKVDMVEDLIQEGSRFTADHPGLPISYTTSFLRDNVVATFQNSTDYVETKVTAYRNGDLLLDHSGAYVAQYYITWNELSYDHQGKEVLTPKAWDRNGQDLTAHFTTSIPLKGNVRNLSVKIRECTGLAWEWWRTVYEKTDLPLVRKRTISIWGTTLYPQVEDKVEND

Question: Which “binding to PLY in ELISA” value (PLY [1]) does the source give for FTWSDGSPVSYEN [P2] here?
Answer: The value was “bind dose‐dependently”.

Question: What about the “binding to LLO in ELISA” value (LLO [2]) of the same sequence?
Answer: Its value is “bound dose‐dependently”.

Question: And the “binding to SLO in ELISA” value (SLO [3])?
Answer: The value was “bound dose‐dependently”.

Question: And the “binding to BSA in ELISA” value (BSA)?
Answer: Its value is “not to BSA”.

Question: And the “inhibition of hemolysis induced by purified SLO” value (SLO [4])?
Answer: Its value is “up to 50%”.

Question: And the IC50 (SLO [4]; read-out: ED50 (median effective dose) vs purified SLO, human, blood, 60 min)?
Answer: The IC50 was 9.8 µM.

Question: And the “hemolytic activity of S. pyogenes type M1T1” value (S. pyogenes type M1T1 [5])?
Answer: The value was “significantly reduced”.

Question: What about the “hemolytic activity of L. monocytogenes type 1” value (L. monocytogenes type 1) of the same sequence?
Answer: The value was “significantly reduced”.

Question: And the “cell death of macrophages induced by LLO, LDH release” value (LLO [6]; THP-1, 0.5 μg/ml toxin)?
Answer: The value was “significantly reduced cell death”.

Question: What about the “% cytotoxicity relative to positive control (lysis buffer), LDH” value (LLO [6]; experiment 1 of 4) of the same sequence?
Answer: Its value is 50.96%.

Question: And the “% cytotoxicity relative to positive control (lysis buffer), LDH” value (LLO [6]; experiment 2 of 4)?
Answer: The value was 55.95%.

Question: And the “% cytotoxicity relative to positive control (lysis buffer), LDH” value (LLO [6]; experiment 3 of 4)?
Answer: Its value is 54.18%.

Question: What about the “% cytotoxicity relative to positive control (lysis buffer), LDH” value (LLO [6]; experiment 4 of 4) of the same sequence?
Answer: The value was 52.24%.

Question: And the “cytolysis by PLY in live imaging” value (PLY [7])?
Answer: Its value is “protection from cytolysis”.

Question: And the “cytolysis by LLO in live imaging” value (LLO [8])?
Answer: Its value is “protected the cells from cytolysis”.

Question: What about the “cytolysis by SLO in live imaging” value (SLO [9]) of the same sequence?
Answer: The value was “protected the cells from cytolysis”.

Question: And the “binding of FITC-labeled peptide to PLY mutant T4Δply” value ([10]; fluorescence microscopy)?
Answer: Its value is “not to the PLY‐deficient strain”.

Question: And the “binding of FITC-labeled peptide to pneumococcal strain T4” value ([10]; fluorescence microscopy)?
Answer: Its value is “bound to T4”.

Question: What about the “binding of FITC-labelled peptide to capsular mutant strain T4R” value ([10]; response to reviewers, Figure 4) of the same sequence?
Answer: Its value is “binds to T4R”.

Question: What about the “release of IL‐8, TNF‐α and IL‐12 by THP-1 macrophages, PLY” value (PLY [11]) of the same sequence?
Answer: The value was “significantly reduced”.

Question: What about the “release of IL‐8, TNF‐α and IL‐12 by THP-1 macrophages, LLO” value (LLO [12]; 0.5 μg/ml toxin, 100 μM peptide) of the same sequence?
Answer: The value was “significantly reduced”.

Question: And the “IL-8 levels in THP-1 macrophages” value (LLO [12]; experiment 1 of 3)?
Answer: The value was 437.8 pg/mL.

Question: And the “IL-8 levels in THP-1 macrophages” value (LLO [12]; experiment 2 of 3)?
Answer: Its value is 441.8 pg/mL.

Question: What about the “IL-8 levels in THP-1 macrophages” value (LLO [12]; experiment 3 of 3) of the same sequence?
Answer: Its value is 448.5 pg/mL.

Question: What about the “release of IL‐8, TNF‐α and IL‐12 by THP-1 macrophages, SLO” value (SLO [13]) of the same sequence?
Answer: Its value is “significantly reduced”.

Question: And the “IL-8 levels in THP-1 macrophages” value (SLO [13]; 100uM, 18 h)?
Answer: Its value is 426.5 pg/mL and 475.1 pg/mL and 490.7 pg/mL.

Question: What about the “LDH release of 3D lung tissue model” value (PLY [14]) of the same sequence?
Answer: The value was “significantly reduced”.

Question: What about the “release of IL‐8 and TNF‐α in lung tissue model” value (PLY [15]) of the same sequence?
Answer: The value was “significantly reduced release”.

Question: What about the “number of invading bacteria in 3D lung epithelial model” value (S. pneumoniae T4 [16]; T4, 100 μM peptide, 2 h) of the same sequence?
Answer: Its value is “significantly reduced”.

Question: And the “Mean Colonies at 100X dil, bacterial invasion of lung epithelium models” value (“Mean Colonies at 100X dil” for short) (S. pneumoniae T4 [16]; biological replicate n=1)?
Answer: Its value is 13.3.

Question: And the “% entry bacteria= (bacteria uptaken/Input)*100” value (S. pneumoniae T4 [16]; n=1)?
Answer: The value was 2.25%.

Question: And the “% entry bacteria= (bacteria uptaken/Input)*100” value (S. pneumoniae T4 [16]; n=2)?
Answer: The value was 2.59%.

Question: And the “Mean Colonies at 100X dil” value (S. pneumoniae T4 [16]; n=2)?
Answer: The value was 15.3.

Question: What about the “% entry bacteria= (bacteria uptaken/Input)*100” value (S. pneumoniae T4 [16]; n=3) of the same sequence?
Answer: The value was 2.54%.

Question: What about the “Mean Colonies at 100X dil” value (S. pneumoniae T4 [16]; n=3) of the same sequence?
Answer: Its value is 15.

Question: What about the “co-localization of T4RΔply in DCs” value (S.pneumoniae T4RΔply; DCs, 100 μM peptide, MOI 10, 2 h) of the same sequence?
Answer: Its value is “had no effect”.

Question: What about the “% bacteria colocalized with MRC-1” value (S.pneumoniae T4RΔply; 100 μM peptide, n=50 bacteria, experiment 1 of 2) of the same sequence?
Answer: Its value is 6%.

Question: And the “% bacteria colocalized with LC3B” value (S.pneumoniae T4RΔply; experiment 1 of 2)?
Answer: The value was 94%.

Question: And the “number of bacteria (of n=50) colocalized with LC3B” value (S.pneumoniae T4RΔply; experiment 1 of 2)?
Answer: The value was 47.

Question: And the “number of bacteria (of n=50) colocalized with MRC-1” value (S.pneumoniae T4RΔply; experiment 1 of 2)?
Answer: The value was 3.

Question: What about the “% bacteria colocalized with LC3B” value (S.pneumoniae T4RΔply; experiment 2 of 2) of the same sequence?
Answer: Its value is 92%.

Question: And the “% bacteria colocalized with MRC-1” value (S.pneumoniae T4RΔply; experiment 2 of 2)?
Answer: The value was 8%.

Question: And the “number of bacteria (of n=50) colocalized with LC3B” value (S.pneumoniae T4RΔply; experiment 2 of 2)?
Answer: Its value is 46.

Question: What about the “number of bacteria (of n=50) colocalized with MRC-1” value (S.pneumoniae T4RΔply; experiment 2 of 2) of the same sequence?
Answer: The value was 4.

Question: And the “co-staining of intracellular S. pyogenes M1T1 with LC3B” value (S. pyogenes type M1T1 [17])?
Answer: Its value is “co‐stained with LC3B”.

Question: What about the “survival of infected zebrafish embryos” value (S. pneumoniae T4 [18]) of the same sequence?
Answer: The value was “significantly improved the survival”.

Question: What about the “expression of LC3B-I and LC3B-II, western blotting” value (LC3B) of the same sequence?
Answer: The value was “induced higher expression”.

Question: What about the “cell death of macrophages induced by SLO, LDH release” value (SLO [19]) of the same sequence?
Answer: The value was “significantly reduced cell death”.

Question: What about the “inhibition of hemolysis induced by purified LLO” value (LLO [20]; at concentrations ranging from 10 to 100 μM) of the same sequence?
Answer: Its value is “up to 50%”.

Question: What about the IC50 (LLO [20]; read-out: ED50 (median effective dose) vs purified LLO, hemolysis, regression analysis) of the same sequence?
Answer: Its IC50 is 22.3 µM.

Question: And the “toxicity by lung histology analysis (H&E)” value ([21]; 24 h post intranasal administration, 5 µg peptide/mouse)?
Answer: Its value is “not toxic”.

Question: What about the “clinical symptoms” value ([21]; 24 h post‐administration) of the same sequence?
Answer: The value was “did not develop any clinical symptoms”.
